Data as given in patent publication US6737383B1, “Herbicidal oxadiazolidines” (priority 1999, dated 2004).

What was measured:
corn = experiment: Test B pre/postemergence corn; type: in vivo, Zea mays
Outline: (§1)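 Herbicidal effect was estimated by eye on a ten-point control scale after plants spent twelve to sixteen days in a greenhouse following soil or foliar treatment. Foliar sprays targeted plants at one to four leaves; all doses were formulated in a non-phytotoxic solvent with surfactant.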

crabgrass = experiment: Test B pre/postemergence crabgrass; type: in vivo, Digitaria sanguinalis
Outline: as §1

duck salad = experiment: Test B flood test duck salad; type: in vivo, Heteranthera limosa
Outline: (§2)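 Each value is a visual injury score relative to controls, with 10 meaning complete control and 0 no effect. Evaluation took place twelve to sixteen days after the 2-leaf-stage plants were treated and kept in the greenhouse.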

morningglory = experiment: Test B pre/postemergence morningglory; type: in vivo, Ipomoea hederacea
Outline: as §1

giant foxtail = experiment: Test B pre/postemergence giant foxtail; type: in vivo, Setaria faberii
Outline: as §1

pigweed = experiment: Test B pre/postemergence pigweed; type: in vivo, Amaranthus retroflexus
Outline: as §1

cocklebur = experiment: Test B pre/postemergence cocklebur; type: in vivo, Xanthium strumarium
Outline: as §1

surinam grass = experiment: Test B pre/postemergence surinam grass; type: in vivo, Brachiaria decumbens
Outline: as §1

rice = experiment: Test B flood test rice; type: in vivo, Oryza sativa
Outline: as §2

smallflower flatsedge = experiment: Test B flood test smallflower flatsedge; type: in vivo, Cyperus difformis
Outline: as §2

wild oat = experiment: Test B pre/postemergence wild oat; type: in vivo, Avena fatua
Outline: as §1

purple nutsedge = experiment: Test B pre/postemergence purple nutsedge; type: in vivo, Cyperus rotundus
Outline: as §1

sugar beet = experiment: Test B pre/postemergence sugar beet; type: in vivo, Beta vulgaris
Outline: as §1

rape = experiment: Test B pre/postemergence rape; type: in vivo, Brassica napus
Outline: as §1

bamyardgrass = experiment: Test B flood test barnyardgrass; type: in vivo, Echinochloa crus-galli
Outline: as §2

soybean = experiment: Test B pre/postemergence soybean; type: in vivo, Glycine max
Outline: as §1

[1] = Postemergence, Rate 125 g/ha, scale of 0 to 10 where 0 is no effect and 10 is complete control
[2] = Preemergence, Rate 62 g/ha, scale of 0 to 10 where 0 is no effect and 10 is complete control
[3] = Preemergence, Rate 125 g/ha, 0 is no effect, 10 is complete control
[4] = Preemergence, Rate 250 g/ha, scale 0 to 10, 0 is no effect, 10 is complete control
[5] = Preemergence, Rate 500 g/ha, scale 0 to 10 (0 no effect, 10 complete control)
[6] = Rate 62 g/ha, Postemergence, scale of 0 to 10 where 0 is no effect and 10 is complete control
[7] = Rate 250 g/ha, Postemergence, scale 0 to 10, 0 is no effect, 10 is complete control
[8] = Rate 500 g/ha, Postemergence, scale 0 to 10
[9] = Postemergence (flood test species), Rate 125 g/ha, scale of 0 to 10 where 0 is no effect and 10 is complete control
[10] = Rate 62 g/ha, Postemergence section, flood test species, scale of 0 to 10 where 0 is no effect and 10 is complete control
[11] = Rate 250 g/ha, Postemergence (flood test), scale 0 to 10, 0 is no effect, 10 is complete control
[12] = Rate 500 g/ha, listed under Postemergence (flood test species), scale 0 to 10

## Cc1nsc(C)c1-n1c(=O)on(C(=O)N(c2ccc(F)cc2F)C(C)C)c1=O [Compound 158]
corn; [1]
  Corn plant response rating: 0
corn; [2]
  Corn plant response rating: 0
corn; [3]
  Corn plant response rating (0 to 10 scale): 0
corn; [4]
  Corn plant response rating: 2
corn; [5]
  Corn plant response rating: 2
corn; [6]
  Corn plant response rating: 0
corn; [7]
  Plant response rating, Corn: 0
corn; [8]
  Corn plant response rating: 0
crabgrass; [1]
  Crabgrass plant response rating: 0
crabgrass; [2]
  Crabgrass plant response rating: 3
crabgrass; [3]
  Crabgrass plant response rating (0 to 10 scale): 3
crabgrass; [4]
  Crabgrass plant response rating: 4
crabgrass; [5]
  Crabgrass plant response rating: 7
crabgrass; [6]
  Crabgrass plant response rating: 0
crabgrass; [7]
  Plant response rating, Crabgrass: 3
crabgrass; [8]
  Crabgrass plant response rating: 4
Duck salad; [9]
  Ducksalad plant response rating: 0
Duck salad; [10]
  Ducksalad plant response rating: 0
Duck salad; [11]
  Plant response rating, Ducksalad: 0
Duck salad; [12]
  Ducksalad plant response rating: 0
morningglory; [1]
  Morningglory plant response rating: 2
morningglory; [2]
  Morningglory plant response rating: 0
morningglory; [3]
  Morningglory plant response rating (0 to 10 scale): 0
morningglory; [4]
  Morningglory plant response rating: 1
morningglory; [5]
  Morningglory plant response rating: 2
morningglory; [6]
  Morningglory plant response rating: 0
morningglory; [7]
  Plant response rating, Morningglory: 2
morningglory; [8]
  Morningglory plant response rating: 2
Giant foxtail; [1]
  Giant foxtail plant response rating: 0
Giant foxtail; [2]
  Giant foxtail plant response rating: 3
Giant foxtail; [3]
  Giant foxtail plant response rating (0 to 10 scale): 4
Giant foxtail; [4]
  Giant foxtail plant response rating: 7
Giant foxtail; [5]
  Giant foxtail plant response rating: 8
Giant foxtail; [6]
  Giant foxtail plant response rating: 0
Giant foxtail; [7]
  Plant response rating, Giant foxtail: 4
Giant foxtail; [8]
  Giant foxtail plant response rating: 5
pigweed; [1]
  Redroot pigweed plant response rating: 2
pigweed; [2]
  Redroot pigweed plant response rating: 0
pigweed; [3]
  Redroot pigweed plant response rating (0 to 10 scale): 0
pigweed; [4]
  Redroot pigweed plant response rating: 0
pigweed; [5]
  Redroot pigweed plant response rating: 2
pigweed; [6]
  Redroot pigweed plant response rating: 0
pigweed; [7]
  Plant response rating, Redroot pigweed: 2
pigweed; [8]
  Redroot pigweed plant response rating: 4
cocklebur; [1]
  Cocklebur plant response rating: 0
cocklebur; [2]
  Cocklebur plant response rating: 0
cocklebur; [3]
  Cocklebur plant response rating (0 to 10 scale): 0
cocklebur; [4]
  Cocklebur plant response rating: 0
cocklebur; [5]
  Cocklebur plant response rating: 0
cocklebur; [6]
  Cocklebur plant response rating: 0
cocklebur; [7]
  Plant response rating, Cocklebur: 0
cocklebur; [8]
  Cocklebur plant response rating: 0
Surinam grass; [1]
  B. signalgrass plant response rating: 0
Surinam grass; [2]
  B. signalgrass plant response rating: 0
Surinam grass; [3]
  B. signalgrass plant response rating (0 to 10 scale): 0
Surinam grass; [4]
  B. signalgrass plant response rating: 0
Surinam grass; [5]
  B. signalgrass plant response rating: 0
Surinam grass; [6]
  B. signalgrass plant response rating: 0
Surinam grass; [7]
  Plant response rating, B. signalgrass: 0
Surinam grass; Rate 500 g/ha, Postemergence, scale 0 to 10, 0 no effect, 10 complete control
  B. signalgrass plant response rating: 0
rice; [9]
  Rice plant response rating: 0
rice; [10]
  Rice plant response rating: 0
rice; [11]
  Plant response rating, Rice: 0
rice; [12]
  Rice plant response rating: 0
Smallflower flatsedge; [9]
  S. Flatsedge plant response rating: 0
Smallflower flatsedge; [10]
  S. Flatsedge plant response rating: 0
Smallflower flatsedge; [11]
  Plant response rating, S. Flatsedge: 0
Smallflower flatsedge; [12]
  S. Flatsedge plant response rating: 0
Wild oat; [2]
  Wild oats plant response rating: 0
Wild oat; [3]
  Wild oats plant response rating (0 to 10 scale): 0
Wild oat; [4]
  Wild oats plant response rating: 0
Wild oat; [5]
  Wild oats plant response rating: 2
Wild oat; [7]
  Plant response rating, Wild oats: 0
Wild oat; [8]
  Wild oats plant response rating: 0
Purple nutsedge; [1]
  Nutsedge plant response rating: 0
Purple nutsedge; [2]
  Nutsedge plant response rating: 0
Purple nutsedge; [3]
  Nutsedge plant response rating (0 to 10 scale): 0
Purple nutsedge; [4]
  Nutsedge plant response rating: 0
Purple nutsedge; [5]
  Nutsedge plant response rating: 0
Purple nutsedge; [6]
  Nutsedge plant response rating: 0
Purple nutsedge; [7]
  Plant response rating, Nutsedge: 0
Purple nutsedge; [8]
  Nutsedge plant response rating: 0
Sugar beet; [1]
  Sugarbeets plant response rating: 0
Sugar beet; [2]
  Sugarbeets plant response rating: 0
Sugar beet; [3]
  Sugarbeets plant response rating (0 to 10 scale): 0
Sugar beet; [4]
  Sugarbeets plant response rating: 0
Sugar beet; [5]
  Sugarbeets plant response rating: 0
Sugar beet; [6]
  Sugarbeets plant response rating: 0
Sugar beet; [7]
  Plant response rating, Sugarbeets: 0
Sugar beet; [8]
  Sugarbeets plant response rating: 0
rape; [1]
  Rape plant response rating: 0
rape; [2]
  Rape plant response rating: 0
rape; [3]
  Rape plant response rating (0 to 10 scale): 0
rape; [4]
  Rape plant response rating: 0
rape; [5]
  Rape plant response rating: 0
rape; [6]
  Rape plant response rating: 0
rape; [7]
  Plant response rating, Rape: 0
rape; [8]
  Rape plant response rating: 0
bamyardgrass; [9]
  Barnyardgrass plant response rating: 0
bamyardgrass; [10]
  Barnyardgrass plant response rating: 0
bamyardgrass; [11]
  Plant response rating, Barnyardgrass: 0
bamyardgrass; [12]
  Barnyardgrass plant response rating: 0
soybean; [1]
  Soybean plant response rating: 3
soybean; [2]
  Soybean plant response rating: 0
soybean; [3]
  Soybean plant response rating (0 to 10 scale): 0
soybean; [4]
  Soybean plant response rating: 0
soybean; [5]
  Soybean plant response rating: 0
soybean; [6]
  Soybean plant response rating: 3
soybean; [7]
  Plant response rating, Soybean: 4
soybean; [8]
  Soybean plant response rating: 5
